The target in assay [1] is human RORγt ligand binding domain (RORγt LBD) (Homo sapiens (Human), UniProt P51449). Put plainly: RORγt ThermoFluor assay. The source says:
ThermoFluor® is a fluorescence based assay that estimates ligand binding affinities by measuring the effect of a ligand on protein thermal stability (Pantoliano, M. W., Petrella, E. C., Kwasnoski, J. D., Lobanov, V. S., Myslik, J., Graf, E., Carver, T., Asel, E., Springer, B. A., Lane, P., and Salemme, F. R. (2001) High-density miniaturized thermal shift assays as a general strategy for drug discovery. J Biomol Screen 6, 429-40, and Matulis, D., Kranz, J. K., Salemme, F. R., and Todd, M. J. (2005) Thermodynamic stability of carbonic anhydrase: measurements of binding affinity and stoichiometry using ThermoFluor. Biochemistry 44, 5258-66). This approach is applicable to a wide variety of systems, and rigorous in theoretical interpretation through quantitation of equilibrium binding constants (KD).
The shift in the melting point described as a ΔTm is proportional to the concentration and affinity of the ligand. The compound potency may be compared as a rank order of either values at a single compound concentration or in terms of KD values, estimated from concentration response curves.
RORγt ThermoFluor® Assay Construct
For the RORγt construct used in the ThermoFluor® assay, numbering for the nucleotide sequences was based on the reference sequence for human RORγt, transcript variant 2, NCBI Accession: NM 001001523.1 (SEQ ID NO:1). Nucleotides 850-1635 (SEQ ID NO:2) coding for the wild type human RORγt ligand binding domain (RORγt LBD) were cloned into the pHIS1 vector, a modified pET E. coli expression vector (Accelagen, San Diego), containing an in-frame N-terminal His-tag and a TurboTEV protease cleavage site (ENLYFQG, SEQ ID NO:3) upstream of the cloned insert sequence. The amino acid sequence for the RORγt construct used in the Thermofluor® assay is shown as SEQ ID NO:4.
ThermoFluor® experiments were carried out using instruments owned by Janssen Research and Development, L.L.C. through its acquisition of 3-Dimensional Pharmaceuticals, Inc. 1,8-ANS (Invitrogen) was used as a fluorescent dye. Protein and compound solutions are dispensed into black 384-well polypropylene PCR microplates (Abgene) and overlayed with silicone oil (1 μL, Fluka, type DC 200) to prevent evaporation.
Bar-coded assay plates are robotically loaded onto a thermostatically controlled PCR-type thermal block and then heated at a typical ramp-rate of 1° C./min for all experiments. Fluorescence was measured by continuous illumination with UV light (Hamamatsu LC6) supplied via fiber optic and filtered through a band-pass filter (380-400 nm; >6 OD cutoff). Fluorescence emission of the entire 384-well plate was detected by measuring light intensity using a CCD camera (Sensys, Roper Scientific) filtered to detect 500±25 nm, resulting in simultaneous and independent readings of all 384 wells. Images were collected at each temperature, and the sum of the pixel intensity in a given area of the assay plate was recorded versus temperature. Reference wells contained RORγt without compounds, and the assay conditions were as follows:
Project compounds were arranged in a pre-dosed mother plate (Greiner Bio-one) wherein compounds are serially diluted in 100% DMSO by 1:2 from a high concentration of 10 mM over 12 columns within a series (column 12 is a reference well containing DMSO, no compound). The compounds were robotically dispensed directly into assay plates (1×=46 nL) using a Hummingbird capillary liquid handling instrument (Digilab). Following compound dispense, protein and dye in buffer was added to achieve the final assay volume of 3 μL, followed by 1 μL of silicone oil.
The binding affinity was estimated as described previously (Matulis, D., Kranz, J. K., Salemme, F. R., and Todd, M. J. (2005) Thermodynamic stability of carbonic anhydrase: measurements of binding affinity and stoichiometry using ThermoFluor®. Biochemistry 44, 5258-66) using the following thermodynamic parameters of protein unfolding:
Reference RORγt Tm: 47.8° C.
(In general: In DSF a fluorescence change marks the thermal transition of the protein.)

Assay [2] concerns the target full-length human RORγt (GAL4-DBD-RORγt fusion) in HEK293T cells (Homo sapiens (Human), UniProt P51449). Put plainly: RORγt (full-length human) reporter assay, conditions A or B. In kind it is cell-based. As to conditions: for RORγt (FL) Reporter Assay A or B, % inhibition / inhibition at 3 µM: 3 μM compound concentration (footnote *); for IC50: HEK293T cells, read-out: RORγt (FL) Reporter Assay A or B, IC50; for inhibition at 3 µM / inhibition at 1 µM: HEK-293T, read-out: RORγt (FL) Reporter Assay A or B, % inhibition; for inhibition at 1 µM: 1 μM compound concentration (footnote ***). As for the experimental part:
RORγt (Full-Length Human) Reporter Assay:
(§1) HEK293T cells were plated at 35,000 per well in 96-well plate in medium of DMEM with 10% FBS. […] After overnight (16 to 20 hours) incubation, media were removed and cells were lysed with 50 μL Glo Lysis Buffer (Promega) for 10-15 minutes followed by 10 minute incubation with 50 μL Dual Glo reagent (Promega) at room temperature. Firefly luciferase luminescence was measured using a BMG Pherastar plate reader. To each well, 50 μL Stop and Glo reagent was added and incubated for 10 minutes at room temperature. Renilla luminescence was measured using a BMG Pherastar plate reader. To calculate the effect of compounds on RORγt activity, firefly values were normalized against values of DMSO only and values of reference compound at saturating concentration, then further normalized against Renilla signals. IC50s were generated by plotting final Renilla normalized data against compound concentration and percent inhibition was calculated against DMSO control.
as §1, with “at 8750 cells” for “at 35,000”, “in 384-well” for “in 96-well”, “with 20” for “with 50”, “well, 20” for “well, 50”
Background: Reporter assays use an easily measured gene product as a stand-in for the process of interest.

Marks after values point to notes of the source that are not given here.

Sequence of human RORγt ligand binding domain (RORγt LBD) (P51449 other isoform, or with tags, fused parts or gaps): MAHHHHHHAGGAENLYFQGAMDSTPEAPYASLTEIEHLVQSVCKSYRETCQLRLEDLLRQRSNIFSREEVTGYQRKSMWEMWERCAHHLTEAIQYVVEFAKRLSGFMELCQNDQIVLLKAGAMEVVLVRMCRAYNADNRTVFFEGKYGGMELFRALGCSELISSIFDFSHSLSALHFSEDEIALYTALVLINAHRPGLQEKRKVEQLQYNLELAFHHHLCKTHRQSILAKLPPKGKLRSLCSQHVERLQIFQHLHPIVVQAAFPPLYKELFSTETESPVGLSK
Sequence of full-length human RORγt (GAL4-DBD-RORγt fusion) in HEK293T cells (P51449 other isoform, or with tags, fused parts or gaps): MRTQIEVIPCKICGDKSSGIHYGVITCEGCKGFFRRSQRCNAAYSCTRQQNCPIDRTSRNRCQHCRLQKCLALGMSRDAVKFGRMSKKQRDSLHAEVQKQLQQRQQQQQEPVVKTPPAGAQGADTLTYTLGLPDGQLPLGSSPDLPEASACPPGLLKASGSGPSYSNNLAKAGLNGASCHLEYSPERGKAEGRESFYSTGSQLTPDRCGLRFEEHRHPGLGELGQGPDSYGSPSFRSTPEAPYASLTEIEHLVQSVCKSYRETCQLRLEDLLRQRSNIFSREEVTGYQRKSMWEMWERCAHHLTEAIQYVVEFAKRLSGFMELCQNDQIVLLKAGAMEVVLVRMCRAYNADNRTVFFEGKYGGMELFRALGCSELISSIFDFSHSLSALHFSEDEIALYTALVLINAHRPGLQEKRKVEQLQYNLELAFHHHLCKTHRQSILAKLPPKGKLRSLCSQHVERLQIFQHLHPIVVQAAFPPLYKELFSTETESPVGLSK

Broadly, the Kd is the constant that tells how readily two partners part at equilibrium. Read a low Kd as higher affinity. One may read the IC50 as the concentration that inhibits the measured activity by half. The compound `CCn1nc(C(=O)NC[C@H]2CC[C@H](S(=O)(=O)NC(=O)NC)CC2)c(Cl)c1-c1cnc(CC(C)(C)C(F)(F)F)cc1OC(F)F` [Example 6, 4-Chloro-5-(4-(difluoromethoxy)-6-(3,3,3-trifluoro-2,2-dimethylpropyl)pyridin-3-yl)-1-ethyl-N-(((1r,4r)-4-(N-(methylcarbamoyl)sulfamoyl)cyclohexyl)methyl)-1H-pyrazole-3-carboxamide] returned a Kd in assay [1] of 1.9 nM. Further, in assay [2], the “RORγt (FL) Reporter Assay A or B, % inhibition” value is given as 87* % and the IC50 is 270 nM.
Turning to `CCn1nc(C(=O)NC[C@H]2CC[C@H](S(=O)(=O)NC(N)=O)CC2)c(Cl)c1-c1cnc(CC(C)(C)C(F)(F)F)cc1OC(F)F` [Example 7, N-(((1r,4r)-4-(N-carbamoylsulfamoyl)cyclohexyl)methyl)-4-chloro-5-(4-(difluoromethoxy)-6-(3,3,3-trifluoro-2,2-dimethylpropyl)pyridin-3-yl)-1-ethyl-1H-pyrazole-3-carboxamide], the affinity in assay [1], expressed as Kd, was 2.9 nM. Besides, in assay [2], the “RORγt (FL) Reporter Assay A or B, % inhibition” value was 100* % and the IC50 was found to be 240 nM.
Usually inhibition stands for the change of the read-out against control, counted positive when it falls. For the compound `CCn1nc(C(=O)NC[C@H]2CC[C@H](S(N)(=O)=O)CC2)c(Cl)c1-c1cnc(CC(C)(C)C(F)(F)F)cc1OC(F)F` [Example 11, 4-chloro-5-(4-(difluoromethoxy)-6-(3,3,3-trifluoro-2,2-dimethylpropyl)pyridin-3-yl)-1-ethyl-N-(((1r,4r)-4-sulfamoylcyclohexyl)methyl)-1H-pyrazole-3-carboxamide], binding in assay [1] was put at a Kd of 1.4 nM. Moreover, in assay [2], the IC50 is 23 nM and the inhibition at 3 µM is 108%.
The like results for `CCn1nc(C(=O)NC[C@H]2CC[C@H](S(N)(=O)=O)CC2)c(C)c1-c1cnc(CC(C)(C)C(F)(F)F)cc1OC(F)F` [Example 12, 5-(4-(Difluoromethoxy)-6-(3,3,3-trifluoro-2,2-dimethylpropyl)pyridin-3-yl)-1-ethyl-4-methyl-N-(((1r,4r)-4-sulfamoylcyclohexyl)methyl)-1H-pyrazole-3-carboxamide] were, in that order, 4.3 nM, 29 nM and 110%.
As to `CCn1nc(C(=O)NC[C@H]2CC[C@H](S(C)(=O)=O)CC2)c(Cl)c1-c1cnc(CC(C(F)(F)F)C(F)(F)F)cc1OC(F)F` [Example 21, 4-Chloro-5-(4-(difluoromethoxy)-6-(3,3,3-trifluoro-2-(trifluoromethyl)propyl)pyridin-3-yl)-1-ethyl-N-(((1r,4r)-4-(methylsulfonyl)cyclohexyl)methyl)-1H-pyrazole-3-carboxamide], binding in assay [1] was put at a Kd of 1.2 nM. For the same compound, in assay [2], the IC50 was 20 nM and the inhibition at 1 µM was determined as 120%.
The like results for `CCn1nc(C(=O)NC[C@]2(O)CC[C@@H](S(C)(=O)=O)CC2)c(Cl)c1-c1cnc(CC(C(F)(F)F)C(F)(F)F)cc1OC(F)F` [Example 22, 4-Chloro-5-(4-(difluoromethoxy)-6-(3,3,3-trifluoro-2-(trifluoromethyl)propyl)pyridin-3-yl)-1-ethyl-N-(((1s,4s)-1-hydroxy-4-(methylsulfonyl)cyclohexyl)methyl)-1H-pyrazole-3-carboxamide] were, in that order, 6.4 nM, 46 nM and 115%.
Compound `CCn1nc(C(=O)NC[C@H]2CC[C@H](S(C)(=O)=O)CC2)c(C)c1-c1cnc(CC(C(F)(F)F)C(F)(F)F)cc1OC(F)F` [Example 23, 5-(4-(Difluoromethoxy)-6-(3,3,3-trifluoro-2-(trifluoromethyl)propyl)pyridin-3-yl)-1-ethyl-4-methyl-N-(((1r,4r)-4-(methylsulfonyl)cyclohexyl)methyl)-1H-pyrazole-3-carboxamide] registered a Kd in assay [1] of 2.5 nM. Further, in assay [2], the IC50 amounted to 15 nM and the inhibition at 3 µM came to 100%.
The like results for `CCn1nc(C(=O)NC[C@]2(O)CC[C@@H](S(C)(=O)=O)CC2)c(C)c1-c1cnc(CC(C(F)(F)F)C(F)(F)F)cc1OC(F)F` [Example 24, 5-(4-(Difluoromethoxy)-6-(3,3,3-trifluoro-2-(trifluoromethyl)propyl)pyridin-3-yl)-1-ethyl-N-(((1s,4s)-1-hydroxy-4-(methylsulfonyl)cyclohexyl)methyl)-4-methyl-1H-pyrazole-3-carboxamide] were, in that order, 8.9 nM, 63 nM and 113%.
The like results for `CCn1nc(C(=O)NC[C@H]2CC[C@H](S(C)(=O)=O)CC2)c(Cl)c1-c1cnc(CC(C)(C)C(F)(F)F)cc1C(C)C` [Example 25] were, in that order, 15 nM, 340 nM and 94%.
Take `CCn1nc(C(=O)NC[C@H]2CC[C@H](S(C)(=O)=O)CC2)c(Cl)c1-c1cnc(CC(C)(C)C(F)(F)F)cc1C(F)F` [Example 26, 4-Chloro-5-(4-(difluoromethyl)-6-(3,3,3-trifluoro-2,2-dimethylpropyl)pyridin-3-yl)-1-ethyl-N-(((1r,4r)-4-(methylsulfonyl)cyclohexyl)methyl)-1H-pyrazole-3-carboxamide]: binding in assay [1] was characterised by a dissociation constant (Kd) of 17 nM. In assay [2], the IC50 is 14 nM and the inhibition at 3 µM was determined as 88%.
The like results for `CCn1nc(C(=O)NC[C@]2(O)CC[C@@H](S(C)(=O)=O)CC2)c(Cl)c1-c1cnc(CC(C)(C)C(F)(F)F)cc1C(F)F` [Example 27, 4-Chloro-5-(4-(difluoromethyl)-6-(3,3,3-trifluoro-2,2-dimethylpropyl)pyridin-3-yl)-1-ethyl-N-(((1s,4s)-1-hydroxy-4-(methylsulfonyl)cyclohexyl)methyl)-1H-pyrazole-3-carboxamide] were, in that order, 47 nM, 130 nM and 20%.
